Reference: US10703733B2, “MCL-1 inhibitors” (Gilead Sciences, Inc., priority 2018, dated 2020)
pEC50, pIC50: −log10 of the molar value.

What was measured:
SKBR3 cells = assay: SKBR3 Cell Viability Assay (CellTiter Glo); assay type: cell-based; conditions: Homo sapiens, SK-BR-3, 72 h, CellTiter Glo luminescence, read-out: MCL-1 CV SKBR3 EC50
Procedure, shortened: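 SKBR3 cells (6,000/well) in McCoy 5A + 10% FBS exposed to serially diluted compound for 72 h at 37° C., 5% CO2. Viability by CellTiter Glo luminescence; % inhibition normalized to DMSO (negative) and 10 μM puromycin (positive).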

[1] = molecular target: MCL-1/Bim interaction (recombinant human MCL-1 protein, residues 171-327; biotinylated human Bim peptide, residues 51-76) (Homo sapiens (Human), UniProt Q07820); assay: MCL-1/Bim Binding AlphaLISA Assay; conditions: 0.0625 nM 6xHis-Mcl-1 (171-327), 0.0625 nM biotinylated-Bim peptide
Chain of MCL-1/Bim interaction (recombinant human MCL-1 protein, residues 171-327; biotinylated human Bim peptide, residues 51-76) (Q07820 171-327): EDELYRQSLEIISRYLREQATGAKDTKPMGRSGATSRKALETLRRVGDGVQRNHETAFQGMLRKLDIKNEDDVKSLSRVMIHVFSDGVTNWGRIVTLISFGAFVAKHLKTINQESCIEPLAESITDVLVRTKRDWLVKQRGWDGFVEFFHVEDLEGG
Procedure, shortened: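 AlphaLISA with 0.0625 nM His-tagged MCL-1 and 0.0625 nM biotin-Bim peptide in 20 mM Hepes pH 7.5, 150 mM NaCl, 0.002% Brij 35, 1 mM DTT, 0.01% BSA. Compound preincubated 1 h with MCL-1, Bim added for 2 h, then acceptor and donor beads 1 h each.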

Compound | pEC50 (SKBR3 cells) | pIC50 [1]
CO[C@H]1/C=C/C[C@H](C)C[S@@](=O)(NC(=O)c2cc(C)co2)=NC(=O)c2ccc3c(c2)N(C[C@@H]2CC[C@H]21)C[C@@]1(CCCc2cc(Cl)ccc21)CO3 [Example 203] | 7.12 | 10.14
CO[C@H]1/C=C/C[C@H](C)C[S@@](=O)(NC(=O)c2coc(C)c2)=NC(=O)c2ccc3c(c2)N(C[C@@H]2CC[C@H]21)C[C@@]1(CCCc2cc(Cl)ccc21)CO3 [Example 204] | 6.87 | 10.32
CO[C@H]1/C=C/C[C@H](C)C[S@@](=O)(NC(=O)NC2C[C@H]2C(F)F)=NC(=O)c2ccc3c(c2)N(C[C@@H]2CC[C@H]21)C[C@@]1(CCCc2cc(Cl)ccc21)CO3 (stereo partly drawn) [Example 207] | 7.36 | 9.79
CO[C@H]1/C=C/C[C@H](C)C[S@@](=O)(NC(=O)c2cc3n(c2)CCc2c-3cnn2C)=NC(=O)c2ccc3c(c2)N(C[C@@H]2CC[C@H]21)C[C@@]1(CCCc2cc(Cl)ccc21)CO3 [Example 208] | 7.35 | 9.87
COC[C@H]1C[C@@H](NC(=O)N[S@@]2(=O)=NC(=O)c3ccc4c(c3)N(C[C@@H]3CC[C@H]3[C@@H](OC)/C=C/C[C@H](C)C2)C[C@@]2(CCCc3cc(Cl)ccc32)CO4)C1 [Example 210] | 7.36 | 10.15
COCC12CC(NC(=O)N[S@@]3(=O)=NC(=O)c4ccc5c(c4)N(C[C@@H]4CC[C@H]4[C@@H](OC)/C=C/C[C@H](C)C3)C[C@@]3(CCCc4cc(Cl)ccc43)CO5)(C1)C2 [Example 211] | 7.27 | 10.09
CNc1nn(C)cc1C(=O)N[S@@]1(=O)=NC(=O)c2ccc3c(c2)N(C[C@@H]2CC[C@H]2[C@@H](OC)/C=C/C[C@H](C)C1)C[C@@]1(CCCc2cc(Cl)ccc21)CO3 [Example 212] | 7.42 | 10.40
CO[C@H]1/C=C/C[C@H](C)C[S@@](=O)(NC(=O)c2cn(C)nc2N(C)C)=NC(=O)c2ccc3c(c2)N(C[C@@H]2CC[C@H]21)C[C@@]1(CCCc2cc(Cl)ccc21)CO3 [Example 213] | 7.24 | 10.12
COC[C@H]1Cn2cc(C(=O)N[S@@]3(=O)=NC(=O)c4ccc5c(c4)N(C[C@@H]4CC[C@H]4[C@@H](OC)/C=C/C[C@H](C)C3)C[C@@]3(CCCc4cc(Cl)ccc43)CO5)cc2CO1 [Example 214] | 7.25 | 9.73
CO[C@H]1/C=C/C[C@H](C)C[S@@](=O)(NC(=O)NC2CC3(COC3)C2)=NC(=O)c2ccc3c(c2)N(C[C@@H]2CC[C@H]21)C[C@@]1(CCCc2cc(Cl)ccc21)CO3 [Example 217] | 7.08 | 10.19
CO[C@H]1/C=C/C[C@H](C)[C@@H](C)[S@@](=O)(NC(=O)c2cc3n(c2)C[C@H](C)OC3)=NC(=O)c2ccc3c(c2)N(C[C@@H]2CC[C@H]21)C[C@@]1(CCCc2cc(Cl)ccc21)CO3 [Example 218] | 7.07 | 9.46
CO[C@H]1/C=C/C[C@H](C)C[S@@](=O)(NC(=O)c2cc3n(n2)CCO3)=NC(=O)c2ccc3c(c2)N(C[C@@H]2CC[C@H]21)C[C@@]1(CCCc2cc(Cl)ccc21)CO3 [Example 219] | 6.84 | 10.00
CC[C@H]1C/C=C/[C@H](OC)[C@@H]2CC[C@H]2CN2C[C@@]3(CCCc4cc(Cl)ccc43)COc3ccc(cc32)C(=O)N=[S@](=O)(NC(=O)c2cn(C)nc2OC)C1 [Example 220] | 7.01 | 9.91
CO[C@H]1/C=C/C[C@H](C)C[S@@](=O)(NC(=O)c2cn(C)nc2OCC2CC2)=NC(=O)c2ccc3c(c2)N(C[C@@H]2CC[C@H]21)C[C@@]1(CCCc2cc(Cl)ccc21)CO3 [Example 221] | 6.98 | 10.34
CO[C@H]1/C=C/C[C@H](C)C[S@@](=O)(NC(=O)N[C@@H]2CC[C@@H](O)C2)=NC(=O)c2ccc3c(c2)N(C[C@@H]2CC[C@H]21)C[C@@]1(CCCc2cc(Cl)ccc21)CO3 [Example 222] | 7.10 | 10.36
COc1nn(C)cc1C(=O)N[S@@]1(=O)=NC(=O)c2ccc3c(c2)N(C[C@@H]2CC[C@H]2[C@@H](O)/C=C/C[C@H](C)C1)C[C@@]1(CCCc2cc(Cl)ccc21)CO3 [Example 223] | 7.43 | 10.41
COc1c(C(=O)N[S@@]2(=O)=NC(=O)c3ccc4c(c3)N(C[C@@H]3CC[C@H]3[C@@H](OC)/C=C/C[C@H](C)C2)C[C@@]2(CCCc3cc(Cl)ccc32)CO4)cn2c1C[C@@H](OC)C2 [Example 224] | 7.08 | 9.71

Compound | pEC50 (SKBR3 cells) | pIC50 [1]
CCO[C@]1(C)C[C@H](NC(=O)N[S@@]2(=O)=NC(=O)c3ccc4c(c3)N(C[C@@H]3CC[C@H]3[C@@H](OC)/C=C/C[C@H](C)C2)C[C@@]2(CCCc3cc(Cl)ccc32)CO4)C1 [Example 225] | 7.29 | 10.37
CCN(CC)C(=O)OC1CN(C(=O)N[S@@]2(=O)=NC(=O)c3ccc4c(c3)N(C[C@@H]3CC[C@H]3[C@@H](OC)/C=C/C[C@H](C)C2)C[C@@]2(CCCc3cc(Cl)ccc32)CO4)C1 [Example 226] | 7.15 | 10.02
CO[C@H]1/C=C/[C@H](OC)[C@H](C)C[S@@](=O)(NC(=O)N[C@H]2CC2C(F)F)=NC(=O)c2ccc3c(c2)N(C[C@@H]2CC[C@H]21)C[C@@]1(CCCc2cc(Cl)ccc21)CO3 (stereo partly drawn) [Example 227] | 7.67 | 10.12
COc1nn(C)cc1C(=O)N[S@@]1(=O)=NC(=O)c2ccc3c(c2)N(C[C@@H]2CC[C@H]2[C@@H](OC)/C=C\C[C@H](C)C1)C[C@@]1(CCCc2cc(Cl)ccc21)CO3 [Example 228] | 7.16 | 10.16
CO[C@H]1/C=C/C[C@H](C)C[S@@](=O)(NC(=O)N2CC3(CCO3)C2)=NC(=O)c2ccc3c(c2)N(C[C@@H]2CC[C@H]21)C[C@@]1(CCCc2cc(Cl)ccc21)CO3 [Example 230] | 7.33 | 10.57
CO[C@H]1/C=C/C[C@H](C)C[S@@](=O)(NC(=O)N2CC3(CCCO3)C2)=NC(=O)c2ccc3c(c2)N(C[C@@H]2CC[C@H]21)C[C@@]1(CCCc2cc(Cl)ccc21)CO3 [Example 231] | 7.40 | 10.29
COC[C@@H]1CN(C(=O)N[S@@]2(=O)=NC(=O)c3ccc4c(c3)N(C[C@@H]3CC[C@H]3[C@@H](OC)/C=C/C[C@H](C)C2)C[C@@]2(CCCc3cc(Cl)ccc32)CO4)CCO1 [Example 232] | 6.62 | 10.28
CO[C@H]1/C=C/C[C@H](C)C[S@@](=O)(NC(=O)N2CC(C#N)C2)=NC(=O)c2ccc3c(c2)N(C[C@@H]2CC[C@H]21)C[C@@]1(CCCc2cc(Cl)ccc21)CO3 [Example 233] | 7.33 | 10.80
COCCOC1CCN(C(=O)N[S@@]2(=O)=NC(=O)c3ccc4c(c3)N(C[C@@H]3CC[C@H]3[C@@H](OC)/C=C/C[C@H](C)C2)C[C@@]2(CCCc3cc(Cl)ccc32)CO4)CC1 [Example 234] | 7.13 | 10.28
CCOC1CN(C(=O)N[S@@]2(=O)=NC(=O)c3ccc4c(c3)N(C[C@@H]3CC[C@H]3[C@@H](OC)/C=C/C[C@H](C)C2)C[C@@]2(CCCc3cc(Cl)ccc32)CO4)C1 [Example 235] | 7.40 | 10.46
CO[C@H]1/C=C/C[C@H](C)C[S@@](=O)(NC(=O)N2C3COCC2C3)=NC(=O)c2ccc3c(c2)N(C[C@@H]2CC[C@H]21)C[C@@]1(CCCc2cc(Cl)ccc21)CO3 [Example 236] | 6.82 | 10.26
CO[C@H]1/C=C/C[C@H](C)C[S@@](=O)(NC(=O)N2CC(C(C)(C)O)C2)=NC(=O)c2ccc3c(c2)N(C[C@@H]2CC[C@H]21)C[C@@]1(CCCc2cc(Cl)ccc21)CO3 [Example 237] | 6.92 | 10.36
CO[C@H]1/C=C/C[C@H](C)C[S@@](=O)(NC(=O)c2cc(CN3CCN4CCOC[C@@H]4C3)n(C)c2)=NC(=O)c2ccc3c(c2)N(C[C@@H]2CC[C@H]21)C[C@@]1(CCCc2cc(Cl)ccc21)CO3 [Example 238] | 7.63 | 10.48
COc1nn(C)cc1C(=O)N[S@@]1(=O)=NC(=O)c2ccc3c(c2)N(C[C@@H]2CC[C@H]2[C@@H](OC)CCC[C@H](C)C1)C[C@@]1(CCCc2cc(Cl)ccc21)CO3 [Example 240] | 7.04 | 10.74
CCC1CN(C(=O)N[S@@]2(=O)=NC(=O)c3ccc4c(c3)N(C[C@@H]3CC[C@H]3[C@@H](OC)/C=C/C[C@H](C)C2)C[C@@]2(CCCc3cc(Cl)ccc32)CO4)C1 [Example 242] | 7.08 | 10.13
CO[C@H]1/C=C/C[C@H](C)C[S@@](=O)(NC(=O)N[C@H]2C[C@@H]2C(F)(F)F)=NC(=O)c2ccc3c(c2)N(C[C@@H]2CC[C@H]21)C[C@@]1(CCCc2cc(Cl)ccc21)CO3 [Example 243] | 7.38 | 10.23
